# Source: patent US20260306638A1, “COMPOUNDS AND USES THEREOF” (FOGHORN THERAPEUTICS INC., priority 2023, published 2026)
# Columns and labels:
# HiBit-BRM fusion protein = molecular target: T1, HiBit-BRM fusion protein (Homo sapiens, UniProt P51531); assay: HiBiT-BRM degradation in a stable HeLa cell line (cell-based degradation assay, Nano-Glo HiBiT Lytic Detection); settings: HeLa cells, 24 h; for Dmax: human, 30 μM top dose, read-out: BRM HiBit Degradation Maximum
# T1 construct: HiBiT; expressed in transfected cells
# Procedure: (§1) Procedure: A stable HeLa cell line expressing HiBiT-BRM was generated. On day 0, 5000 cells were seeded in 40 μL of media into each well of 384-well cell culture plates. On day 1, cells were treated with 120 nL DMSO or 120 nL of 3-fold serially DMSO-diluted compounds (10 points in duplicate with 30 µM as final top dose). Subsequently plates were incubated for 24 h in a standard tissue culture incubator and equilibrated at room temperature for 15 minutes. Nano-Glo HiBiT Lytic Detection System (Promega N3050) reagent was freshly prepared and 20 μl was added to each well. Upon addition of this LgBit-containing reagent, the HiBIT and LgBiT proteins associate to form the luminescent NanoBiT luciferase. The plates were shaken for 10 minutes at room temperature and the bioluminescence read using an En Vision plate reader (PerkinElmer).
# (§2) The degradation % was calculated using the following formula: % degradation=100%−100%×(Lumsample−LumLC)/(LumHC−LumLC). DMSO treated cells are employed as High Control (HC) and 2 μM of a known BRM/BRG1 degrader standard treated cells are employed as Low Control (LC).
# [1] = molecular target: T2, HiBit-BRG1 fusion protein (Homo sapiens, UniProt P51532); assay: HiBit-BRG1 degradation in a stable HeLa cell line expressing HiBit-BRG1 and LgBit (cell-based degradation assay); settings: HeLa cells, 24 h; for Dmax: human, 30 μM top dose, read-out: BRG1 HiBit Degradation Maximum
# T2 construct: HiBiT; expressed in transfected cells
# Procedure: as §1
# For measurement of BRG1 degradation, a stable HeLa cell line expressing HiBit-BRG1 and LgBit was generated. The same protocol as above was then followed.
# as §2
# T1 sequence (P51531 whole entry, the tested form may be a part): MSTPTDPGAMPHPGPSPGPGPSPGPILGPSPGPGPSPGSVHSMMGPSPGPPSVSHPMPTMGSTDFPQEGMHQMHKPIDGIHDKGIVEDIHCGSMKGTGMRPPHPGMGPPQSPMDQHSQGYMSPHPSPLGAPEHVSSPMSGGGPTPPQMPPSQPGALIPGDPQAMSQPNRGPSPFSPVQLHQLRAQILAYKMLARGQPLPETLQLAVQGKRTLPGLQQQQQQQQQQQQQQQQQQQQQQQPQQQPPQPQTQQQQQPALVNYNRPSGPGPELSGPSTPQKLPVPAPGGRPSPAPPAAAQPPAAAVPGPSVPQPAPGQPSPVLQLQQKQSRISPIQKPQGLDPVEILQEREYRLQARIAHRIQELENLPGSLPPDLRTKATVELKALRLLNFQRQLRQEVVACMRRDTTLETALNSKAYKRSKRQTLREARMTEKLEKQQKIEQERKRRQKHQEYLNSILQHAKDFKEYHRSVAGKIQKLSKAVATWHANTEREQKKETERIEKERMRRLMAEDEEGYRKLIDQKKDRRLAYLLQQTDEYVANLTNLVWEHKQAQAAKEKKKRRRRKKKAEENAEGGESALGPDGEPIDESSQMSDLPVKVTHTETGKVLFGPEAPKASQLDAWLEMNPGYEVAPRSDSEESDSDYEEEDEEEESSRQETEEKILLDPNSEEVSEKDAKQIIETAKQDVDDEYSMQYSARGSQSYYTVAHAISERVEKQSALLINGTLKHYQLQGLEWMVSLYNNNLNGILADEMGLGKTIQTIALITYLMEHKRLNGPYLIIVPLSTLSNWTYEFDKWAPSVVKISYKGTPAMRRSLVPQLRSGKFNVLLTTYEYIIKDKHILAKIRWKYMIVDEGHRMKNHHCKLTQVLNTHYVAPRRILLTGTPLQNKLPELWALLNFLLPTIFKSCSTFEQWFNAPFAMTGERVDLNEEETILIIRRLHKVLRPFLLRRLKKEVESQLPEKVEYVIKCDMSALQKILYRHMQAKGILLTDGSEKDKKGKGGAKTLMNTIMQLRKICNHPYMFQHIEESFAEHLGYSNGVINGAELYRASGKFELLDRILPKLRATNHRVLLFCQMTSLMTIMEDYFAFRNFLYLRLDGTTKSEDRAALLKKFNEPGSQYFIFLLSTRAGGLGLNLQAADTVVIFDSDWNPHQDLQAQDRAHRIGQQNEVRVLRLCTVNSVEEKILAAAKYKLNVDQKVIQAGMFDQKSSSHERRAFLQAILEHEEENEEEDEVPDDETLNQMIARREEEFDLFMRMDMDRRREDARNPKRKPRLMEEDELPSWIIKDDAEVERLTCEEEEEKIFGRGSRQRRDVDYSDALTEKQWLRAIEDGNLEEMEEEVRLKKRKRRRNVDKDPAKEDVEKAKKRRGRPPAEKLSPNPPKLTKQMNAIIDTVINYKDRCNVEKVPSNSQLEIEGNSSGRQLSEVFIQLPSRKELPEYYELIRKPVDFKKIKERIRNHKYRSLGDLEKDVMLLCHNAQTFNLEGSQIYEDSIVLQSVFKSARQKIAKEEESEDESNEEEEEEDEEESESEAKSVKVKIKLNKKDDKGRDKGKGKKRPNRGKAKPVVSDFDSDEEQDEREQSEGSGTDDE
# T2 sequence (P51532 whole entry, the tested form may be a part): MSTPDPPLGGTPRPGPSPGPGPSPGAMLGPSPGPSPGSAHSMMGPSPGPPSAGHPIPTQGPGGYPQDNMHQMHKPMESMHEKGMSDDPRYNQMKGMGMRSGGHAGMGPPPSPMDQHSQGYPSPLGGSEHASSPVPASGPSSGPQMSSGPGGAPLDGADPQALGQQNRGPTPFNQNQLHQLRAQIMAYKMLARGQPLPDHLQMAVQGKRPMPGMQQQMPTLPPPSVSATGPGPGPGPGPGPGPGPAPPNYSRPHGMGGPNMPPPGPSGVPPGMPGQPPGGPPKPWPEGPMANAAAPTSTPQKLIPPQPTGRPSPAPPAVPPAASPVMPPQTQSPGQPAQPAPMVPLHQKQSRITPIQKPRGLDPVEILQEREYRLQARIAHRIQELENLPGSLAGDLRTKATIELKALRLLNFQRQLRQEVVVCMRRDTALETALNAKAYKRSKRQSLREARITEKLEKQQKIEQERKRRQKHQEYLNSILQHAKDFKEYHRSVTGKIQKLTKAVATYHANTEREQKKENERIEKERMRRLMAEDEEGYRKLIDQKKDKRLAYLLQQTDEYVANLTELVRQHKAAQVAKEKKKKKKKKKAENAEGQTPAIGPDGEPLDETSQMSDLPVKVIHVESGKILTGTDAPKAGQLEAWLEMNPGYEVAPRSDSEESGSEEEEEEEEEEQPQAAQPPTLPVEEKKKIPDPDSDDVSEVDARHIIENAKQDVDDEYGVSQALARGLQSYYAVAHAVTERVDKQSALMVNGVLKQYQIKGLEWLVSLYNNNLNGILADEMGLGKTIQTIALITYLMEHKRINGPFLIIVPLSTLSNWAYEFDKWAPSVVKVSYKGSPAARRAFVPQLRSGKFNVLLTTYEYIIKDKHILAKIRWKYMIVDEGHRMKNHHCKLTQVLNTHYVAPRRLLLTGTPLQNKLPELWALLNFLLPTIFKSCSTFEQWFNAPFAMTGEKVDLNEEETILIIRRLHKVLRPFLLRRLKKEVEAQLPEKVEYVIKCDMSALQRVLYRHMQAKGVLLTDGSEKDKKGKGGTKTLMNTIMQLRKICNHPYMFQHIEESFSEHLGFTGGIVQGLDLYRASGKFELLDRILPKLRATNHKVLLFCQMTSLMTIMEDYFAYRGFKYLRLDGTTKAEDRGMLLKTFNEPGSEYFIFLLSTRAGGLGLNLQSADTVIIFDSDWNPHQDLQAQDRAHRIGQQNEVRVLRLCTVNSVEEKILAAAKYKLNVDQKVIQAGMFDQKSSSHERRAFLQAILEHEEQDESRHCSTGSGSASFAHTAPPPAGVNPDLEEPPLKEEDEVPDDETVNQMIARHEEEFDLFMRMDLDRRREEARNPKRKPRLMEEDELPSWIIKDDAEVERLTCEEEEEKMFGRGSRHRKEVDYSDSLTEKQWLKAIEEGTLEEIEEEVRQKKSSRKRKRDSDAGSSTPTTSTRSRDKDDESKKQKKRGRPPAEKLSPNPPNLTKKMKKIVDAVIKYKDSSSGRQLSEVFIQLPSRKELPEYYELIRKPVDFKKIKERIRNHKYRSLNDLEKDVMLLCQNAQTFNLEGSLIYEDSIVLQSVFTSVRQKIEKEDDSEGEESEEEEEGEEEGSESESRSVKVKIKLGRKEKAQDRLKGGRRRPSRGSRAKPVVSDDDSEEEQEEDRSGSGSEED
DC50 (HiBit-BRM fusion protein) [nM],Dmax (HiBit-BRM fusion protein) [%],Dmax [1] [%],DC50 ([1]; read-out: BRMG1 HiBit Degradation DC50) [nM],Compound
< 10,≥ 75,< 50,,"Cc1ncsc1-c1ccc([C@H](C)NC(=O)[C@@H]2C[C@@H](O)CN2C(=O)[C@@H](c2cc(N3CC4(C3)CN(c3ccc5nnc(-c6ccccc6O)cc5n3)C4)no2)C(C)C)cc1 [Compound 1, (2S,4R)-4-hydroxy-1-[(2R)-2-(3-{6-[3-(2-hydroxyphenyl)pyrido[3,2-c]pyridazin-6-yl]-2,6-diazaspiro[3.3]heptan-2-yl}-1,2-oxazol-5-yl)-3-methylbutanoyl]-N-[(1S)-1-[4-(4-methyl-1,3-thiazol-5-yl)phenyl]ethyl]pyrrolidine-2-carboxamide]"
< 10,≥ 75,< 50,,"Cc1nc2cc(-c3ccccc3O)nnc2cc1N1CC2(CN(c3cc([C@H](C(=O)N4C[C@H](O)C[C@H]4C(=O)N[C@@H](C)c4ccc(-c5scnc5C)cc4)C(C)C)on3)C2)C1 [Compound 3, (2S,4R)-4-hydroxy-1-[(2R)-2-(3-{6-[3-(2-hydroxyphenyl)-6-methylpyrido[3,2-c]pyridazin-7-yl]-2,6-diazaspiro[3.3]heptan-2-yl}-1,2-oxazol-5-yl)-3-methylbutanoyl]-N-[(1S)-1-[4-(4-methyl-1,3-thiazol-5-yl)phenyl]ethyl]pyrrolidine-2-carboxamide]"
< 10,≥ 75,< 50,,"Cc1ncsc1-c1ccc([C@H](C)NC(=O)[C@@H]2C[C@@H](O)CN2C(=O)[C@@H](c2cc(N3CC4(C3)CN(c3cc5nnc(-c6ccccc6O)cc5n(C)c3=O)C4)no2)C(C)C)cc1 (single isomer, unassigned) [Compound 4]"
< 10,≥ 75,≥ 75,< 10,"Cc1ncsc1-c1ccc([C@H](C)NC(=O)[C@@H]2C[C@@H](O)CN2C(=O)[C@H](C(C)C)n2cc(-c3ccc4nnc(-c5ccccc5O)cc4n3)nn2)cc1 [Compound 2, (2S,4R)-4-hydroxy-1-[(2S)-2-{4-[3-(2-hydroxyphenyl)pyrido[3,2-c]pyridazin-6-yl]-1,2,3-triazol-1-yl}-3-methylbutanoyl]-N-[(1S)-1-[4-(4-methyl-1,3-thiazol-5-yl)phenyl]ethyl]pyrrolidine-2-carboxamide]"
